Experimental data taken from patent US4526787A, “N-heterocyclic retinoic acid analogues” (SRI International, priority 1983, dated 1985).

Experiments:
[1] = test system: Hamster Tracheal Organ Culture; assay: Tracheal organ culture assay: reversal of keratinization; type: cell-based
Description: (§1) The ODC assay measures a compound's ability to prevent the induction of ODC. The tracheal organ culture assay measures a compound's ability to reverse keratinization.
The tracheal organ culture assay is carried out as follows. Tracheas are taken from hamsters that are in very early stages of vitamin A deficiency and placed in organ culture. At the time of culture, the animals are still gaining weight; the tracheal epithelium is generally low columnar or cuboidal, with only occasional patches of squamous metaplasia. Each trachea is opened from the larynx to the carina along the membranous dorsal wall and cultured in a serum-free medium (CMRL-1066; with crystalline bovine insulin, 0.1 μg/ml; hydrocortisone hemisuccinate, 0.1 μg/ml; glutamine, 2 mM; penicillin, 100 units/ml; and streptomycin,100 μg/ml, added). Cultures are gassed with 50% oxygen, 45% nitrogen, and 5% CO2. The culture dishes are rocked at 35.5-36.0 degrees to allow the tracheas contact with both gas and medium. All tracheas are grown in medium containing no retinoid for the first 3 days. At the end of 3 days, some tracheas are harvested; almost of these tracheas have significant squamous metaplasia, and approximately 60% have keratinized lesions. The remaining tracheas are then divided into different groups which are treated with either: (1) retinoid dissolved in dimethylsulfoxide (final concentration of DMSO in culture medium is never greater than 0.1%) or (2) an equivalent amount of DMSO alone. Culture medium is changed three times a week, and all of the remaining tracheas are harvested at the end of 10 days in culture. Tracheas are fixed in 10% buffered formalin and embedded in paraffin. Cross sections of five micrometers are made through the mid-portion, stained with hematoxylin and eosin, and then scored with a microscope for the presence of keratin and keratohyaline granules, both of which are found in approximately 90% of control cultures that received no retinoid for the entire 10 day culture period.

Ornithine Decarboxylase = assay: ODC assay: inhibition of induction of ornithine decarboxylase by TPA in mouse skin; type: in vivo, mouse (female Charles River CD-1); settings: topical, 1 hour before TPA (17 nmol)
Description: as §1
The ODC assay is carried out as follows. Female Charles River CD-1 mice from Charles River Breeding Laboratories, Wilmington, Mass., are used (age 7 to 9 weeks). The dorsal hair of the mice is shaved 1 to 2 days before testing, and only mice showing no hair regrowth are used. […] The test compound, at one of three dose levels (1.7, 17 and 170 nmol), dissolved in 0.2 mL of acetone is applied 1 hour before the TPA treatment to the test groups; the control group is treated with acetone alone. The mice are killed by cervical dislocation five hours after TPA treatment. Determinations are done in triplicate.
The epidermis is obtained from the sacrificed animals. To obtain sufficient material, the dorsal skins from 2 to 3 mice in each treatment group are pooled. […]
The supernatant fraction remaining after centrifugation of the homogenate at 10,000×g for 30 seconds at 0° C. is used for the enzyme assay. Enzyme activity is determined using the microassay for ODC as described by Verma and Boutwell to measure the release of ^14 CO2 from DL-[1-^14 C]-ornithine (58 mCi/mmol) after incubation with the 10,000×g supernatant. […]

| SMILES | Reversal of Keratinization in Hamster Tracheal Organ Culture, Active/Total Cultures (%) ([1]; Conc 10^-8 M) | Reversal of Keratinization in Hamster Tracheal Organ Culture, Active/Total Cultures (%) ([1]; Conc 10^-9 M) | Reversal of Keratinization in Hamster Tracheal Organ Culture, Active/Total Cultures (%) ([1]; Conc 10^-10 M) | Reversal of Keratinization in Hamster Tracheal Organ Culture, Active/Total Cultures ([1]; Conc 10^-8 M) | Reversal of Keratinization in Hamster Tracheal Organ Culture, Active/Total Cultures ([1]; Conc 10^-9 M) | Reversal of Keratinization in Hamster Tracheal Organ Culture, Active/Total Cultures ([1]; Conc 10^-10 M) | Reversal of Keratinization in Hamster Tracheal Organ Culture, Active/Total Cultures ([1]; Conc 10^-11 M) | Reversal of Keratinization in Hamster Tracheal Organ Culture, Active/Total Cultures (%) ([1]; Conc 10^-11 M) | Inhibition of Induction of Ornithine Decarboxylase by 12-O-Tetradecanoylphorbol-13-acetate in Mouse Skin, % Inhibition of Control (Ornithine Decarboxylase; Dose 1.7 nmol) [%] | Inhibition of Induction of Ornithine Decarboxylase by 12-O-Tetradecanoylphorbol-13-acetate in Mouse Skin, % Inhibition of Control (Ornithine Decarboxylase; Dose 17 nmol) [%] |
| --- | --- | --- | --- | --- | --- | --- | --- | --- | --- | --- |
| CC1=C(/C=C/C(C)=C/C=C/C(C)=C/C(=O)O)C(C)(C)CCC1 [Retinoic Acid] | 100 | 88 | 52 | – | – | – | – | – | – | – |
| CCOC(=O)c1ccc(/C=C(C)/C=C/C2=C(C)CCCC2(C)C)cn1 [Example, (E)-1-(2-Carbethoxy-5-pyridyl)-2-methyl-4-(2,6,6-trimethyl-1-cyclohexen-1-yl)-1,3-butadiene] | 100 | 57 | 29 | 7/7 | 8/14 | 4/14 | 1/7 | 14 | 29 | 68 |
